Reference: ChEMBL document CHEMBL1201862, “PubChem BioAssay data set” (2004)
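Tested at 5 concentrations; 48 h exposure; 96-well plates; endpoints linearly interpolated, else capped at highest concentration. Here, GI50 denotes the concentration required for 50% inhibition of growth.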 Active and inactive are the calls of the source. Cut-off read from the data, not from the text of the source: active = GI50 up to about 1.1 µM and inactive = higher.

Columns and labels:
Test in all cases: inhibition of tumour cell growth, NCI panel, 48 h
NCI-H23 = test system: NCI-H23
DLD-1 = test system: DLD-1
EKVX = test system: EKVX
NCI-H460 = test system: NCI-H460
HOP-18 = test system: HOP-18
SNB-75 = test system: SNB-75
SF-295 = test system: SF-295
RXF 393 = test system: RXF 393
ACHN = test system: ACHN
SF-268 = test system: SF-268
SK-MEL-2 = test system: SK-MEL-2
XF498 = test system: XF498
LXFL 529 = test system: LXFL 529
SNB-78 = test system: SNB-78
M19-MEL = test system: M19-MEL
A549 = test system: A549
COLO 205 = test system: COLO 205
MOLT-4 = test system: MOLT-4
DMS-273 = test system: DMS-273
HT-29 = test system: HT-29
OVCAR-5 = test system: OVCAR-5
RPMI-8226 = test system: RPMI-8226
HCT-116 = test system: HCT-116
NCI-H522 = test system: NCI-H522
UO-31 = test system: UO-31
HOP-62 = test system: HOP-62
SK-OV-3 = test system: SK-OV-3
A498 = test system: A498
LOX IMVI = test system: LOX IMVI
786-0 = test system: 786-0
U-251 = test system: U-251
SW-620 = test system: SW-620
OVCAR-3 = test system: OVCAR-3
IGROV-1 = test system: IGROV-1
OVCAR-8 = test system: OVCAR-8
CCRF-CEM = test system: CCRF-CEM
UACC-257 = test system: UACC-257
TK-10 = test system: TK-10
HCC 2998 = test system: HCC 2998
HOP-92 = test system: HOP-92
SK-MEL-5 = test system: SK-MEL-5
KM-20L2 = test system: KM-20L2
K562 = test system: K562
Malme-3M = test system: Malme-3M
SF-539 = test system: SF-539
KM12 = test system: KM12
DMS-114 = test system: DMS-114
HL-60 = test system: HL-60
SK-MEL-28 = test system: SK-MEL-28
UACC-62 = test system: UACC-62
OVCAR-4 = test system: OVCAR-4
HCT-15 = test system: HCT-15
M14 = test system: M14
RXF 631 = test system: RXF 631
SNB-19 = test system: SNB-19

O=C1/C(=C/c2cccc([N+](=O)[O-])c2)COc2ccc(Br)cc21
GI50 (NCI-H23): > 100 µM (inactive)
GI50 (DLD-1): > 100 µM (inactive)
GI50 (EKVX): > 100 µM (inactive)
GI50 (NCI-H460): > 100 µM (inactive)
GI50 (HOP-18): > 100 µM (inactive)
GI50 (SNB-75): 55.7 µM (inactive)
GI50 (SF-295): > 100 µM (inactive)
GI50 (RXF 393): > 100 µM (inactive)
GI50 (ACHN): > 100 µM (inactive)
GI50 (SF-268): > 100 µM (inactive)
GI50 (SK-MEL-2): > 100 µM (inactive)
GI50 (XF498): > 100 µM (inactive)
GI50 (LXFL 529): > 100 µM (inactive)
GI50 (SNB-78): > 100 µM (inactive)
GI50 (M19-MEL): > 100 µM (inactive)
GI50 (A549): > 100 µM (inactive)
GI50 (COLO 205): > 100 µM (inactive)
GI50 (MOLT-4): 26.9 µM (inactive)
GI50 (DMS-273): 45.2 µM (inactive)
GI50 (HT-29): 58.6 µM (inactive)
GI50 (OVCAR-5): > 100 µM (inactive)
GI50 (RPMI-8226): 2.24 µM (inactive)
GI50 (HCT-116): 32.6 µM (inactive)
GI50 (NCI-H522): 55 µM (inactive)
GI50 (UO-31): 95.5 µM (inactive)
GI50 (HOP-62): > 100 µM (inactive)
GI50 (SK-OV-3): > 100 µM (inactive)
GI50 (A498): > 100 µM (inactive)
GI50 (LOX IMVI): 37.2 µM (inactive)
GI50 (786-0): 90.2 µM (inactive)
GI50 (U-251): > 100 µM (inactive)
GI50 (SW-620): 42.4 µM (inactive)
GI50 (OVCAR-3): > 100 µM (inactive)
GI50 (IGROV-1): > 100 µM (inactive)
GI50 (OVCAR-8): > 100 µM (inactive)
GI50 (CCRF-CEM): 13.6 µM (inactive)
GI50 (UACC-257): > 100 µM (inactive)
GI50 (TK-10): > 100 µM (inactive)
GI50 (HCC 2998): > 100 µM (inactive)
GI50 (HOP-92): > 100 µM (inactive)
GI50 (SK-MEL-5): > 100 µM (inactive)
GI50 (KM-20L2): > 100 µM (inactive)
GI50 (K562): 22.9 µM (inactive)
GI50 (Malme-3M): > 100 µM (inactive)
GI50 (SF-539): > 100 µM (inactive)
GI50 (KM12): > 100 µM (inactive)
GI50 (DMS-114): 65.9 µM (inactive)
GI50 (HL-60): 17.7 µM (inactive)
GI50 (SK-MEL-28): > 100 µM (inactive)

O=C(Cc1cc[n+]([O-])cc1)C(=O)Nc1cc(Cl)c(Cl)cc1Cl
GI50 (NCI-H23): > 100 µM (inactive)
GI50 (DLD-1): > 100 µM (inactive)
GI50 (EKVX): > 100 µM (inactive)
GI50 (NCI-H460): > 100 µM (inactive)
GI50 (SNB-75): 77.1 µM (inactive)
GI50 (SF-295): > 100 µM (inactive)
GI50 (RXF 393): > 100 µM (inactive)
GI50 (ACHN): > 100 µM (inactive)
GI50 (SF-268): > 100 µM (inactive)
GI50 (SK-MEL-2): > 100 µM (inactive)
GI50 (UACC-62): > 100 µM (inactive)
GI50 (LXFL 529): > 100 µM (inactive)
GI50 (SNB-78): > 100 µM (inactive)
GI50 (M19-MEL): > 100 µM (inactive)
GI50 (A549): > 100 µM (inactive)
GI50 (COLO 205): > 100 µM (inactive)
GI50 (MOLT-4): > 100 µM (inactive)
GI50 (OVCAR-5): > 100 µM (inactive)
GI50 (RPMI-8226): > 100 µM (inactive)
GI50 (HCT-116): > 100 µM (inactive)
GI50 (NCI-H522): > 100 µM (inactive)
GI50 (UO-31): > 100 µM (inactive)
GI50 (HOP-62): > 100 µM (inactive)
GI50 (SK-OV-3): > 100 µM (inactive)
GI50 (A498): > 100 µM (inactive)
GI50 (786-0): > 100 µM (inactive)
GI50 (U-251): > 100 µM (inactive)
GI50 (OVCAR-4): > 100 µM (inactive)
GI50 (SW-620): > 100 µM (inactive)
GI50 (OVCAR-3): > 100 µM (inactive)
GI50 (IGROV-1): > 100 µM (inactive)
GI50 (OVCAR-8): > 100 µM (inactive)
GI50 (CCRF-CEM): > 100 µM (inactive)
GI50 (UACC-257): > 100 µM (inactive)
GI50 (TK-10): > 100 µM (inactive)
GI50 (HCT-15): > 100 µM
GI50 (HCC 2998): > 100 µM (inactive)
GI50 (HOP-92): 38.3 µM (inactive)
GI50 (M14): > 100 µM (inactive)
GI50 (SK-MEL-5): > 100 µM (inactive)
GI50 (RXF 631): > 100 µM (inactive)
GI50 (KM-20L2): > 100 µM (inactive)
GI50 (K562): > 100 µM (inactive)
GI50 (Malme-3M): > 100 µM (inactive)
GI50 (SF-539): > 100 µM (inactive)
GI50 (KM12): > 100 µM (inactive)
GI50 (DMS-114): > 100 µM (inactive)
GI50 (HL-60): > 100 µM (inactive)
GI50 (SK-MEL-28): > 100 µM (inactive)
GI50 (SNB-19): > 100 µM (inactive)
